# In patent US11324708B1 (UNION therapeutics A/S, priority 2020, dated 2022):
# Tests used:
# SARS-CoV-2 = SARS-CoV-2 in Vero E6 cells; cited from earlier work
# [1] = test system: ATCC 29213, MRSA 434844 and S. aureus Newman; experiment: Spot test on LB agar, statements for all three strains; format: cell-based; conditions: for bacterial load in repeated spot test, API in DMSO: only the highest concentrations (niclosamide 100 μg/mL, oxyclozanide 40 μg/mL; 200×-400× MIC of Niclo, 180× MIC Oxy)
# Experimental: Following incubation, the formed colonies were counted. […] Duplicates were performed.
# As both positive controls were negative further the experiment was repeated using different concentrations in a spot test using the same methodology described above.
# In this experiment the negative control was the bacterial suspension only.
# [2] = oral 2 g/day dose
# SARS-CoV = conditions: Vero E6 cells; read-out: EC50 of SARS-CoV replication; cited from earlier work
# asthmatic mice = conditions: niclosamide dissolved in corn oil, I.P. injection; cited from earlier work
# TMEM16A = biological target: T1, TMEM16A (Homo sapiens, UniProt Q5XXA6); conditions: cited from earlier work
# T1 sequence (Q5XXA6 1-986): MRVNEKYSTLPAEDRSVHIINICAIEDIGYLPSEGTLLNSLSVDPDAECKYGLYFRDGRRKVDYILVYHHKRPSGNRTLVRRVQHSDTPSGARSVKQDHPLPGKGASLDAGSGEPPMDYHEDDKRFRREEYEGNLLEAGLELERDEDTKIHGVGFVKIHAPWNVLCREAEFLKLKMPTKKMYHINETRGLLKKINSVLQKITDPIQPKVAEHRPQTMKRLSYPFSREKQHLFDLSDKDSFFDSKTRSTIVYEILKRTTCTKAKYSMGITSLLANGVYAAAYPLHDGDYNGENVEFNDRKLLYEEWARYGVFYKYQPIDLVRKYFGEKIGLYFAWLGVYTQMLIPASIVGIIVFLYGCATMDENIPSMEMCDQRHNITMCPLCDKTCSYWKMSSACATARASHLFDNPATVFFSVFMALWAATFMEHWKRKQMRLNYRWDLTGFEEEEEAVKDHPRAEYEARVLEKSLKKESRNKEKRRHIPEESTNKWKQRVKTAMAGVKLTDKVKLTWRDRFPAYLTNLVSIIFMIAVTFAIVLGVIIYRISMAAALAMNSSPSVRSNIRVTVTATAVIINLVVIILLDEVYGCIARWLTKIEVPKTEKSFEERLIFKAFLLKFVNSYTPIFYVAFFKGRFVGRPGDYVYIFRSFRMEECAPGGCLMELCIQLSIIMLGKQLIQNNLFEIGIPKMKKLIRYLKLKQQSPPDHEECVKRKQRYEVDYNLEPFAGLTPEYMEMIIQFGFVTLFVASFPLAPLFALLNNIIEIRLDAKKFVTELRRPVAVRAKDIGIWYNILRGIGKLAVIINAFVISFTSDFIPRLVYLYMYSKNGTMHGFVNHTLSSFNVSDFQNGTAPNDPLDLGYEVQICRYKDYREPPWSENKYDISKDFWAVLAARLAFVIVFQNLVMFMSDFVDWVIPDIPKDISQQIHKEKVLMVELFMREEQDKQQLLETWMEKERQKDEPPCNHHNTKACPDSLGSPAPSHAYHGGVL
# TMEM 116F = biological target: T2, TMEM 116F (Homo sapiens, UniProt Q4KMQ2); conditions: cited from earlier work
# T2 sequence (Q4KMQ2 1-910): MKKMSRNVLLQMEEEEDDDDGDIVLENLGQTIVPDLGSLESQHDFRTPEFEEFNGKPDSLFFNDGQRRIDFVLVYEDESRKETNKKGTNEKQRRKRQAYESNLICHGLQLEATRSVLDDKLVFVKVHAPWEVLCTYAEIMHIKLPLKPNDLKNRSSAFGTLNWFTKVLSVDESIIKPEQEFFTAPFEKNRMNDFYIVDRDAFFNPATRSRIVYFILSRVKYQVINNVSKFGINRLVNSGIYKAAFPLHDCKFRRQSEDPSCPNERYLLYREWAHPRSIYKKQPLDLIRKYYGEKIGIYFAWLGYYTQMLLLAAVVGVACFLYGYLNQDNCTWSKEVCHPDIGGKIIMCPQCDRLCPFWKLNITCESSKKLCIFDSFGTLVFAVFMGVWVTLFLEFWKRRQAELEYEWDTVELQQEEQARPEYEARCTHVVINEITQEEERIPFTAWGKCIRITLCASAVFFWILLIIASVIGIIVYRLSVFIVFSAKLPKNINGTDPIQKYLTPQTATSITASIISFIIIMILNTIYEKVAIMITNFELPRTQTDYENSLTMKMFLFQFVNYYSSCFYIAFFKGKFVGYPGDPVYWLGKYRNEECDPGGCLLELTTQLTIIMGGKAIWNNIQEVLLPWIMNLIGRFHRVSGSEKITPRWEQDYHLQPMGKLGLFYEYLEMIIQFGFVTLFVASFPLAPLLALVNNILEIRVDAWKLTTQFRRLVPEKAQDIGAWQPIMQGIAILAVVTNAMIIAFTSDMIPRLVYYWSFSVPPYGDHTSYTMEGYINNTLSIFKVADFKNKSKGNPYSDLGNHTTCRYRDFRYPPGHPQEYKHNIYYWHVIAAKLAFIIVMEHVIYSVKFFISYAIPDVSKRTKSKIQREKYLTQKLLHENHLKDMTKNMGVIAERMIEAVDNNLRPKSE
# in vivo = conditions: sheep
# all targeted strains = experiment: Minimum Inhibitory Concentration (MIC) assay, all targeted strains; conditions: read-out: MIC against all targeted strains
structure (smiles),measurement,setting,value
CC(=O)Oc1ccccc1C(=O)Nc1ncc([N+](=O)[O-])s1 [nitazoxanide],EC50,SARS-CoV-2,2120 nM
"O=C(Nc1cc(Cl)cc(Cl)c1O)c1c(O)c(Cl)cc(Cl)c1Cl [oxyclozanide, Oxyclozanide]",efficiency in reducing bacterial load,[1]; comparison among formulations,highest efficiency in reducing bacterial load of S. aureus
same,"bacterial load in repeated spot test, API in DMSO",[1],substantially decreased the bacterial load
CCN(CC)CCCC(C)Nc1ccnc2cc(Cl)ccc12 (stereo not shown) [chloroquine],EC50,SARS-CoV-2,1130 nM
O=C(Nc1ccc([N+](=O)[O-])cc1Cl)c1cc(Cl)ccc1O [niclosamide],"bacterial load in repeated spot test, API in DMSO",[1],substantially decreased the bacterial load
same,efficacy margin mean systemic exposure of human oral dose to IC90,[2],8 fold
same,EC50,SARS-CoV,< 100 nM
same,effect in asthmatic mice,asthmatic mice,"reduced mucus production and secretion, as well as bronchoconstriction"
same,inhibition of Cl- channel TMEM16A,TMEM16A,potent inhibitor
same,inhibition of Cl- channel TMEM 116F,TMEM 116F,potent inhibitor
same,Cmax,in vivo; systemic exposure Cmax (mean),577 ng/mL
same,Cmax,in vivo; systemic exposure Cmax (range),217 to 803 ng/mL
same,MIC,all targeted strains,≤ 0.5 µg/mL
